Assays:
Type in all cases: cell-based, human
MDA-MB-231 cells = assay: Mitochondrial transmembrane potential by JC-1 staining; conditions: 4 h treatment, control 92.3%
Description: Subsequently, the mitochondrial transmembrane potential was monitored using JC-1 staining. […] Red fluorescence represents the mitochondrial aggregate form of JC-1 with high ∆Ψm in normal cells. Green fluorescence represents the monomeric form of JC-1 with low ∆Ψm in apoptotic cells.
Figure 5 Mitochondrial transmembrane potential was analysed in PMM-172-treated MDA-MB-231 cells by JC-1 staining. TEXT PRINTED IN THE PICTURE: no label printed: Q1 1.74% (0 μM); Q2 92.3% (0 μM); Q4 0.011% (0 μM); Q3 5.94% (0 μM); Q1 1.88% (2 μM); Q2 73.3% (2 μM); Q4 0.179% (2 μM); Q3 24.6% (2 μM); Q1 1.88% (4 μM); Q2 64.6% (4 μM); Q4 0.227% (4 μM); Q3 33.3% (4 μM); Q1 0.436% (8 μM); Q2 21.3% (8 μM); Q4 0.016% (8 μM); Q3 78.2% (8 μM) DOUBTS OF THE COPYIST ABOUT THIS PICTURE: The picture prints no label for the substance; the plots are told apart only by concentration (0, 2, 4, 8 μM), and the 0 μM plot is the untreated control. / The quadrant percentages are printed very small, so 3, 5, 6, 8 and 9 cannot be told apart with certainty and all readings are best readings: 0 μM: Q1 1.74%, Q2 92.3%, Q3 5.94%, Q4 0.011%; 2 μM: Q1 1.88%, Q2 73.3%, Q3 24.6%, Q4 0.179%; 4 μM: Q1 1.88%, Q2 64.6%, Q3 33.3%, Q4 0.227%; 8 μM: Q1 0.436%, Q2 21.3%, Q3 78.2%, Q4 0.016% […]

[1] = test system: IL-6-induced STAT3 phosphorylation in MDA-MB-231 cells; assay: IL-6 induction of STAT3 phosphorylation (Western blot); conditions: 2 μM pretreatment 24 h, IL-6 (20 ng/mL) 30 min
Description: Figure 6 (A) PMM-172 suppressed constitutive pSTAT3 (Tyr705) in a dose-dependent manner. (B) PMM-172 suppressed constitutive pSTAT3 (Tyr705) in a time-dependent manner. (C) MDA-MB-231 cells were treated with IL-6 (20 ng/mL) or vehicle for 30 min, with or without pretreatment with PMM-172 (2 μM) for 24 h. PMM-172 inhibited IL-6 induced phosphorylation of STAT3. (D) Stattic suppressed constitutive pSTAT3 (Tyr705) in a dose-dependent manner. (E) Stattic suppressed constitutive pSTAT3 (Tyr705) in a time-dependent manner. (F) Tyrosine phosphorylation of two STAT family proteins STAT1 and STAT5 were detected with specific antibodies. […] Data were shown as mean ± SD of three independent experiments. *P < 0.05, **P < 0.01. Cropped blots/gels were used in the figure and the gels had been run under the same experimental conditions; the full-length blots/gels are presented in Supplementary Figure S2.
We further investigated whether PMM-172 could inhibit IL-6-induced STAT3 phosphorylation in MDA-MB-231 cells.
Cells were seeded in 10 cm plates and allowed to adhere overnight. The following day, the specimen was serum starved for 24 h. The specimen was then treated with or without tested agents at the dose of 2 μM. […] Cells were then harvested after 30 min and analyzed by Western blot.

[2] = test system: Bcl-2, Bcl-xL, survivin and cyclin D1 in MDA-MB-231 cells; assay: Western blot of STAT3 downstream target genes expression; conditions: MDA-MB-231, 24 h
Description: Figure 7 MDA-MB-231 cells were treated with indicated concentrations of PMM-172 or Stattic for 24 h, the expression levels of STAT3 in cytoplasmic and nuclear extracts were examined and relative expression levels were analyzed by Image J software. β-actin and Lamin B1 served as markers of cytoplasmic and nuclear extractions, respectively. […] (C) MCF-10A cells were treated with the indicated concentrations of PMM-172 for 24 h. PMM-172 had no effect on the level of the pSTAT3 level in MCF-10A cells. […] Data were shown as mean ± SD from three independent experiments, **P < 0.01. Cropped blots/gels were used in the figure and the gels had been run under the same experimental conditions; the full-length blots/gels are presented in Supplementary Figure S3.
STAT3 target genes are vital to the dysfunctional biology processes induced by the aberrantly activated STAT3. Therefore, we investigated whether PMM-172 suppresses the expression of STAT3-regulated genes related to cell survival, proliferation and apoptosis in MDA-MB-231 cells.
Cells were rinsed twice with cold PBS and then lysed with RIPA buffer containing a protease inhibitor mixture at 1:100 dilution on ice for 30 min. Insoluble components of cell lysates were removed by centrifugation (4 °C, 12000 rmp, 10 min), and protein concentrations were measured using a Pierce BCA protein assay kit. […]

## COc1cc(OC)cc(-c2nnc(SCC(=O)O[C@H](CC=C(C)C)C3=CC(=O)c4c(O)ccc(O)c4C3=O)o2)c1 [PMM-172, (R)-1-(5,8-dihydroxy-1,4-dioxo-1,4-dihydronaphthalen-2-yl)-4-methylpent-3-en-1-yl 2-((5-(3,5-dimethoxyphenyl)-1,3,4-oxadiazol-2-yl)thio)acetate]
MDA-MB-231 cells; 4 μM
  JC-1 quadrant Q2 (ratio of cells with high membrane potential): 64.6%
MDA-MB-231 cells; 8 μM
  JC-1 quadrant Q2 (ratio of cells with high membrane potential): 21.3%
[1]
  IL-6-induced STAT3 phosphorylation: suppressed IL-6-induced STAT3 phosphorylation
[2]
  expression of STAT3 target genes Bcl-2, Bcl-xL, survivin and cyclin D1: down-regulated the expression of Bcl-2, Bcl-xL, survivin and cyclin D1 in a dose-dependent manner

— article PMC5460289, “Identification of New Shikonin Derivatives as Antitumor Agents Targeting STAT3 SH2 Domain” (Scientific Reports, 2017)
